Data on 39 molecules can be found in ChEMBL document CHEMBL4257571, “Discovery of 5-(2-chloro-4'-(1H-imidazol-1-yl)-[1,1'-biphenyl]-4-yl)-1H-tetrazole as potent and orally efficacious S-nitrosoglutathione reductase (GSNOR) inhibitors for the potential treatment of COPD” (Bioorg Med Chem Lett, 2018).

Molecules are shown by their SMILES.

In series [1] the target is T1, Alcohol dehydrogenase class-3 (Homo sapiens, UniProt P11766). The series can be described thus: Inhibition of human GSNOR assessed as reduction in NADH consumption at 10 uM after 3 mins by spectrophotometric analysis relative to control.
Target sequence in this assay (P11766 2-374 limits assumed): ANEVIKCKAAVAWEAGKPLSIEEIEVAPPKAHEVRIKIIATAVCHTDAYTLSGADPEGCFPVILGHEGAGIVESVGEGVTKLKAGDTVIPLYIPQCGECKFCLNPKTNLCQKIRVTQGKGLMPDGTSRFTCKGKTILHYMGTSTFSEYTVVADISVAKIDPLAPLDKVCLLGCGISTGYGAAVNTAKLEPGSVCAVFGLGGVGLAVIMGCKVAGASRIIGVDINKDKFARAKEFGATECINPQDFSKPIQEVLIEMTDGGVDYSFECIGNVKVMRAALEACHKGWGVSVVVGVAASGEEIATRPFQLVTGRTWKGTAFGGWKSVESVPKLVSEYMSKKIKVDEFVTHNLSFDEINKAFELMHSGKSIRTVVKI
Series [2] has as its target T1, Alcohol dehydrogenase class-3. Briefly: Inhibition of human GSNOR assessed as reduction in NADH consumption after 3 mins by spectrophotometric analysis.
Target sequence in this assay (P11766 whole entry): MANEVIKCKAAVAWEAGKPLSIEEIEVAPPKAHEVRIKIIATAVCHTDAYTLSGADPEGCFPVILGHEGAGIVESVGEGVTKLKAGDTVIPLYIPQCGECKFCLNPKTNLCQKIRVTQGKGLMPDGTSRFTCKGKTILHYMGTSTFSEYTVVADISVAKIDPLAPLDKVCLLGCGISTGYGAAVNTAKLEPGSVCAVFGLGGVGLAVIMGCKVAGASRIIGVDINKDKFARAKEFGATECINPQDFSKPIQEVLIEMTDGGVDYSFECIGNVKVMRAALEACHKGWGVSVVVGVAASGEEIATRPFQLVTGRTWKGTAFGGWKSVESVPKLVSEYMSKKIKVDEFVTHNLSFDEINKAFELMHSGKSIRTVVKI
In another series the target is CYP2C9 (Homo sapiens, UniProt P11712). The series can be described thus: Inhibition of CYP2C9 in human liver microsomes at 10 uM after 20 mins in presence of NADPH by LC/MS/MS analysis relative to control. In kind it is ADME. For orientation: Liver microsomes are vesicles of endoplasmic reticulum, rich in cytochrome P450 enzymes.
CYP2C9, sequence (P11712 whole entry): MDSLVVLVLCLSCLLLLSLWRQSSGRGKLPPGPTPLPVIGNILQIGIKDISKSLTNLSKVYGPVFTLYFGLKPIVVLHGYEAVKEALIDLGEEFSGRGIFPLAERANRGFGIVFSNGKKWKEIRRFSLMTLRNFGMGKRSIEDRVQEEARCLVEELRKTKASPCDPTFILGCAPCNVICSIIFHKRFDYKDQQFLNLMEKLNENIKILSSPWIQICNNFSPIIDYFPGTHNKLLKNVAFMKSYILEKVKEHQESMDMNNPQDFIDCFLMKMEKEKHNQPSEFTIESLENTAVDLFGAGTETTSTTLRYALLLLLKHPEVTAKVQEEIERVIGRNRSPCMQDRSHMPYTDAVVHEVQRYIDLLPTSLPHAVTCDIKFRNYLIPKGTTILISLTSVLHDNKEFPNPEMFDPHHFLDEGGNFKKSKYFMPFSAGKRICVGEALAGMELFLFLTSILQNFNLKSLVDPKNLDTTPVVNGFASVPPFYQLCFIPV
The target of another series is CYP3A4 (Homo sapiens, UniProt P08684). The series can be described thus: Inhibition of CYP3A4 in human liver microsomes at 10 uM after 20 mins in presence of NADPH by LC/MS/MS analysis relative to control. In kind it is ADME. Conditions: liver microsomes.
CYP3A4, sequence (P08684 whole entry): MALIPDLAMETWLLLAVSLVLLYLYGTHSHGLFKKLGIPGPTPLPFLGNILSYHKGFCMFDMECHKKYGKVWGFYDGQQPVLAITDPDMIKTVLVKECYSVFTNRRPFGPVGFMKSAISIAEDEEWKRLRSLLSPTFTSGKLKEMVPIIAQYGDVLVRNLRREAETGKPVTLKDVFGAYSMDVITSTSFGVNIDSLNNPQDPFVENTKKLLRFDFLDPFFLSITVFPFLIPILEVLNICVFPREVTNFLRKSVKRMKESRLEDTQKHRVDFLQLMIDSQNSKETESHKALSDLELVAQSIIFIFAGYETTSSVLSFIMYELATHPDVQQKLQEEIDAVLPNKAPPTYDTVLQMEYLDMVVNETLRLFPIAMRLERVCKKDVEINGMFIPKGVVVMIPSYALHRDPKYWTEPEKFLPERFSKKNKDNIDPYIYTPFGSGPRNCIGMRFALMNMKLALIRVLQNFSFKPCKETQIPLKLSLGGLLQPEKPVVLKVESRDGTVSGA
In a further series the target is CYP2D6 (Homo sapiens, UniProt P10635). Briefly: Inhibition of CYP2D6 in human liver microsomes at 10 uM after 20 mins in presence of NADPH by LC/MS/MS analysis relative to control. In kind it is ADME. The conditions noted are these: liver microsomes.
CYP2D6, sequence (P10635 whole entry): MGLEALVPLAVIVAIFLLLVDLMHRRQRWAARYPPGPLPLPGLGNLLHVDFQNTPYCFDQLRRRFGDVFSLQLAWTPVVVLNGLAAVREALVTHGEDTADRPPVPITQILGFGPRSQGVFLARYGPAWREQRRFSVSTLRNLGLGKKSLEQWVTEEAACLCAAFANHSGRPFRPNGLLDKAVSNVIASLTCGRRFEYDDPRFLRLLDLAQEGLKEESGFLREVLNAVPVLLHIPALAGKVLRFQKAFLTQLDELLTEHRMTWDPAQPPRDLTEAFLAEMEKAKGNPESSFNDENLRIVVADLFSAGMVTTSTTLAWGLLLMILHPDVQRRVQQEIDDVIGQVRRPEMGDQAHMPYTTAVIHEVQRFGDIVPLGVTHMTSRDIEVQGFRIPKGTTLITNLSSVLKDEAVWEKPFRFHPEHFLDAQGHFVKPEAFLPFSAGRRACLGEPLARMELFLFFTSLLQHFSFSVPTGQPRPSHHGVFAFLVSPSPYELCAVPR
The nature of series [3]: Metabolic stability of human liver microsomes assessed as parent compound remaining at 0.1 uM after 60 mins in presence of NADPH by LC/MS/MS analysis. Conditions: read-out: Stability. Format: ADME, microsome.
The nature of series [4]: Metabolic stability of mouse liver microsomes assessed as parent compound remaining at 0.1 uM after 60 mins in presence of NADPH by LC/MS/MS analysis. Conditions: read-out: Stability. Format: ADME, microsome.
The next series has as its target CYP2C19 (Homo sapiens, UniProt P33261). The series can be described thus: Inhibition of CYP2C19 in human liver microsomes at 10 uM after 40 mins in presence of NADPH by LC/MS/MS analysis relative to control. In kind it is ADME.
Series [5] is described as follows: Metabolic stability of rat liver microsomes assessed as parent compound remaining at 0.1 uM after 60 mins in presence of NADPH by LC/MS/MS analysis. In kind it is ADME, microsome. The conditions noted are these: read-out: Stability.
For the next series, the target named is T2, CYP1A2 (Homo sapiens, UniProt P05177).
T2 sequence (P05177 whole entry): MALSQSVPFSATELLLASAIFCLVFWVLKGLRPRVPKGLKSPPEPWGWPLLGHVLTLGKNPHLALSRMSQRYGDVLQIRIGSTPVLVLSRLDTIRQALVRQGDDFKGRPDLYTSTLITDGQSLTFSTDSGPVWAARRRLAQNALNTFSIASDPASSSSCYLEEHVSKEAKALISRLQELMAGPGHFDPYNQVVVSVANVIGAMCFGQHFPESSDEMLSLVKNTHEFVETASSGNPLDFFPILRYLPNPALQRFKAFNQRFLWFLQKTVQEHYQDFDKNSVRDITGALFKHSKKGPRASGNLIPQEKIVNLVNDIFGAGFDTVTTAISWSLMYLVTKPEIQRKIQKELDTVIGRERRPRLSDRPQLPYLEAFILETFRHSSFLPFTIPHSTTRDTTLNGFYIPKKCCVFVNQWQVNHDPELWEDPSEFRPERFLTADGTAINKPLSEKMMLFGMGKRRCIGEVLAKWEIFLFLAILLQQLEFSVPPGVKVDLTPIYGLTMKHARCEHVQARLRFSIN
Briefly: Inhibition of CYP1A2 in human liver microsomes at 10 uM after 20 mins in presence of NADPH by LC/MS/MS analysis relative to control. In kind it is ADME. The conditions noted are these: liver microsomes.

CYP2C19, sequence (P33261 whole entry): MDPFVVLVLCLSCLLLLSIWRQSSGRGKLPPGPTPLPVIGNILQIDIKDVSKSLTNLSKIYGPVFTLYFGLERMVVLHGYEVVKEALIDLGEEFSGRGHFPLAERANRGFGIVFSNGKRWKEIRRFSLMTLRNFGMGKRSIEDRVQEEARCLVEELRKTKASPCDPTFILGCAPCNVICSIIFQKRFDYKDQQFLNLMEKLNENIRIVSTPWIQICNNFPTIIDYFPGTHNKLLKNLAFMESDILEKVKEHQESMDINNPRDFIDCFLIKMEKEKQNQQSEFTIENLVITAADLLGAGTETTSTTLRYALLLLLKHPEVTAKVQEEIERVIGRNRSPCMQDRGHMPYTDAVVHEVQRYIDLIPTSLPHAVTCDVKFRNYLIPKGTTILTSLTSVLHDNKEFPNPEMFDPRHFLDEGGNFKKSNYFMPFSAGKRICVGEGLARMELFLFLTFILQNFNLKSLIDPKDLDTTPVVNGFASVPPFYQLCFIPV

Turning to `NC(=O)c1ccc(-c2ccc(-n3ccnc3)cc2)cc1`, in series [1], the inhibition turned out to be 60%.
Turning to `c1cn(-c2cnc(-c3ccc(-c4nnn[nH]4)cc3)c(C3CCCCC3)c2)cn1`, in [2], the IC50 is 74 nM.
Same read-out and setting: the value for `c1cc(-c2nn[nH]n2)ccc1-c1ccc(-c2nnn[nH]2)cc1` was 3280 nM.
For `Cc1cc(-n2ccnc2)ccc1-c1ccc(-c2nnn[nH]2)cc1`, the inhibition at 20 min, 10 µM at CYP2C9 is 86%; at CYP3A4, 26%; at CYP2D6, 44%; on CYP1A2 it was 39%. In addition, the remaining at 1 h, 0.1 µM in [3] was found to be 99%; in series [4] it was 44%; in [5], 68%. In addition, the IC50 in [2] came out at 14 nM. Further, at CYP2C19, the inhibition at 40 min, 10 µM is 84%.
Consider `Cc1cc(-n2ccnc2)cnc1-c1ccc(C(=O)O)cc1F`, for which the IC50 in series [2] is 36 nM.
Same read-out and setting: the value for `O=C(O)c1ccc(-c2ccc(-n3ccnc3)cc2)c(Cl)c1` was 30 nM.
Consider `c1cn(-c2ccc(-c3ccc(-c4nn[nH]n4)cc3)cc2)cn1`, for which the inhibition at 20 min, 10 µM came to 77% on CYP2C9, 54% on CYP3A4, 73% at CYP2D6 and 74% on CYP1A2. Besides, the remaining at 1 h, 0.1 µM in series [3] came out at 66%; in [4] it was 31%; in [5], 58%. The IC50 in series [2] worked out at 22 nM. Besides, the inhibition at 40 min, 10 µM at CYP2C19 is 69%.
Take `N#Cc1ccc(-c2ccc(-n3ccnc3)cc2)cc1`: in [1], the inhibition amounted to 10%.
Regarding `N#Cc1ccc(-c2ccc(-c3nn[nH]n3)cc2)cc1`, the inhibition in series [1] amounted to 27%.
As to `Cc1cc(-n2ccnc2)ccc1-c1ccc(C(=O)O)cc1`, the inhibition at 20 min, 10 µM on CYP2C9 worked out at 37%; at CYP3A4 it was 4%; on CYP2D6, 14%; on CYP1A2, 22%. Further, the remaining at 1 h, 0.1 µM came out at 100% in series [3], 48% in [4] and 64% in series [5]. Also, the IC50 in series [2] amounted to 20 nM. Moreover, the inhibition at 40 min, 10 µM on CYP2C19 is 18%.
`Cc1cc(-n2ccnc2)ccc1-c1ccc(-c2nnn[nH]2)cc1Cl`: the inhibition at 20 min, 10 µM at CYP2C9 was determined as 83%; on CYP3A4 it was 43%; at CYP2D6, 63%; at CYP1A2, 47%. Besides, the IC50 in series [2] is 12 nM. Further, the inhibition at 40 min, 10 µM at CYP2C19 amounted to 76%.
Consider `Cc1cc(-n2ccnc2)cnc1-c1ccc(-c2nnn[nH]2)cc1`, for which the inhibition at 20 min, 10 µM at CYP2C9 came out at 61%; at CYP3A4, 17%; on CYP2D6, 9%; at CYP1A2, 1%. Besides, the remaining at 1 h, 0.1 µM came out at 94% in series [3], 17% in [4] and 50% in series [5]. Moreover, in series [2], the IC50 came to 17 nM. For the same molecule, the inhibition at 40 min, 10 µM at CYP2C19 is 69%.
As to `CCc1cc(-n2ccnc2)ccc1-c1ccc(-c2nnn[nH]2)cc1F`, the inhibition at 20 min, 10 µM on CYP2C9 was determined as 78%; on CYP3A4, 30%; at CYP2D6, 52%; at CYP1A2 it was 41%. Besides, the values for the remaining at 1 h, 0.1 µM in [3], in series [4] and in series [5] were 97%, 78% and 80%, respectively. Further, the IC50 in [2] amounted to 11 nM. Further, the inhibition at 40 min, 10 µM on CYP2C19 came to 88%.
As to `Clc1cc(-c2nnn[nH]2)ccc1-c1ccc(-n2ccnc2)cn1`, the IC50 in [2] worked out at 308 nM.
Regarding `O=C(O)c1ccc(-c2ncc(-n3ccnc3)cc2Cl)cc1`, in series [2], the half-maximal inhibitory concentration (IC50) turned out to be 89 nM.
Consider `Cc1nccn1-c1ccc(-c2ccc(-c3nnn[nH]3)cc2Cl)cc1`, for which, in series [2], the IC50 stood at 37 nM.
Regarding `O=C(O)c1ccc(-c2ccc(-n3ccnc3)cc2)c(C(F)(F)F)c1`, the IC50 in series [2] was determined as 38 nM.
`Cc1cc(-c2nnn[nH]2)ccc1-c1ccc(-n2ccnc2)cc1`: the IC50 in series [2] came to 26 nM.
On the same count and under the same terms, for `O=C(O)c1ccc(-c2ccc(-n3ccnc3)cc2)c(F)c1` the value was 29 nM.
As to `Clc1cc(-n2ccnc2)cnc1-c1ccc(-c2nnn[nH]2)cc1`, the inhibition at 20 min, 10 µM on CYP2C9 is 64%; on CYP3A4 it was 1%; on CYP2D6, 11%; on CYP1A2 it was 20%. Further, the remaining at 1 h, 0.1 µM in series [3] stood at 83%; in series [4] it was 19%; in series [5], 39%. In addition, the IC50 in series [2] is 20 nM. Besides, the inhibition at 40 min, 10 µM on CYP2C19 is 42%.
As for `O=C(O)c1ccc(-c2ccc(O)cc2)cc1`, the inhibition in series [1] stood at 25%.
Regarding `O=c1nc(-c2ccc(-c3ccc(-n4ccnc4)cc3)cc2)[nH]o1`, the IC50 in series [2] was found to be 152 nM.
On the same count and under the same terms, the value for `Cc1cc(-c2nnn[nH]2)ccc1-c1ncc(-n2ccnc2)cc1Cl` was 935 nM.
On the same count and under the same terms, the value for `Cc1cc(-c2nnn[nH]2)ccc1-c1ccc(-n2ccnc2)cn1` was 44 nM; that for `CCc1cc(-n2ccnc2)cnc1-c1ccc(-c2nnn[nH]2)cc1F` was 62 nM; that for `Cc1cc(-n2ccnc2)cnc1-c1ccc(C(=O)O)cc1` was 41 nM.
Consider `c1cn(-c2ccc(-c3ccc(-c4nnn[nH]4)cc3)nc2)cn1`, for which the IC50 in series [2] was found to be 32 nM.
For the molecule `Fc1cc(-c2nnn[nH]2)ccc1-c1ccc(-n2ccnc2)cc1`, the IC50 in series [2] stood at 20 nM.
As for `Clc1cc(-c2nn[nH]n2)ccc1-c1ccc(-n2cnnn2)cc1`, in series [1], the inhibition was determined as 36%.
With `FC(F)(F)c1cc(-c2nnn[nH]2)ccc1-c1ccc(-n2ccnc2)cc1`, the IC50 in [2] was determined as 39 nM.
On to `CCc1cc(-n2ccnc2)ccc1-c1ccc(-c2nnn[nH]2)cc1`, for which the inhibition at 20 min, 10 µM stood at 94% on CYP2C9, 33% at CYP3A4, 37% at CYP2D6 and 56% at CYP1A2. Also, the remaining at 1 h, 0.1 µM in series [3] was found to be 100%; in series [4], 58%; in series [5], 71%. The IC50 in series [2] is 6.1 nM. On CYP2C19, the inhibition at 40 min, 10 µM turned out to be 86%.
As for `Clc1cc(-c2nn[nH]n2)ccc1-c1ccc(-n2cnnc2)cc1`, the IC50 in series [2] turned out to be 593 nM.
Turning to `O=C(O)c1ccc(-c2ccc(-n3ccnc3)cn2)cc1`, the IC50 in series [2] stood at 214 nM.
`Clc1cc(-n2ccnc2)ccc1-c1ccc(-c2nnn[nH]2)cc1`: the IC50 in series [2] was found to be 22 nM.
As for `O=C(O)c1ccc(-c2ccc(-n3ccnc3)cc2Cl)cc1`, in series [2], the half-maximal inhibitory concentration (IC50) was determined as 59 nM.
In the case of `Cc1nccn1-c1ccc(-c2ccc(-c3nnn[nH]3)cc2)cc1`, the inhibition at 20 min, 10 µM was 18% at CYP2C9, -2% on CYP3A4, 37% on CYP2D6 and 10% at CYP1A2. Moreover, the remaining at 1 h, 0.1 µM in series [3] stood at 63%; in series [4], 92%; in series [5], 82%. The IC50 in [2] was 97 nM. The inhibition at 40 min, 10 µM on CYP2C19 stood at 33%.
Turning to `Cc1cc(C(=O)O)ccc1-c1ccc(-n2ccnc2)cc1`, the IC50 in series [2] was 29 nM.
In the case of `CCc1cc(-n2ccnc2)cnc1-c1ccc(-c2nnn[nH]2)cc1`, the IC50 in [2] came to 66 nM.
Turning to `O=C(O)c1ccc(-c2ccc(-n3ccnc3)cc2)cc1`, the IC50 in series [2] was 62 nM.

One may read the inhibition as the drop in the measured response relative to a control, in per cent. A word on the IC50: it is the concentration needed to halve the response being measured.
